Assay results reported in US20240399001A1, “RA[…] TH[…] TO FIBROBLAST ACTIVATION PROTEIN (FAP)” (BLUE EARTH D[…], priority 2021, published 2024).

Key:
[1] = biological target: T1, FAP (Homo sapiens, UniProt Q12884); experiment: In vitro FAP binding affinity, Grating-Coupled Interferometry (GCI), waveRAPID kinetics assay; settings: immobilized biotinylated FAP; 1×PBS pH 7.4, 1 mM DTT, 0.005% Tween, 2% DMSO; non-radiolabelled compounds
T1 construct: biotin (biotinylated)
T1 sequence (Q12884 1-760): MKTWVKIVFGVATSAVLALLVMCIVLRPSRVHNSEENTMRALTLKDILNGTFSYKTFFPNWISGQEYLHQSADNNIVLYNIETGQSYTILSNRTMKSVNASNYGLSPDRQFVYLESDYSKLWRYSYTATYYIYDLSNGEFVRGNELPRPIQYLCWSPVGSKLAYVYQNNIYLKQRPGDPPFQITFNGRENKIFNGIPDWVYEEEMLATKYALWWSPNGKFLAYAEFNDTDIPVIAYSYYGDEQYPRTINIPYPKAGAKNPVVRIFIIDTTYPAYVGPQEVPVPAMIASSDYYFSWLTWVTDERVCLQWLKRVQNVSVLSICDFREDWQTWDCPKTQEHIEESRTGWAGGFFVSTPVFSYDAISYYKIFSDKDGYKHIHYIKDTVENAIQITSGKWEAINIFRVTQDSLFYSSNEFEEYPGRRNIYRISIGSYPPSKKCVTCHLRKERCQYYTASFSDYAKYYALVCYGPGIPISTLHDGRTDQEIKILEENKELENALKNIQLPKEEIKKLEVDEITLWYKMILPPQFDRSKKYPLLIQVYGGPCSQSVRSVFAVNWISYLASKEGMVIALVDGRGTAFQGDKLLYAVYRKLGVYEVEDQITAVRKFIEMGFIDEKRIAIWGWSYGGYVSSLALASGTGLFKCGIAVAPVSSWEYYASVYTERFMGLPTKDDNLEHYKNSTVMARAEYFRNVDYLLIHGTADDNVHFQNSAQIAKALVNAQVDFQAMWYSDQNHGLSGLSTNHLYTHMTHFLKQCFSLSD
Experimental: The binding affinity of non-radiolabelled compounds Example 2 (Ga—(S,R,R)—SiFA-FAP-1) and Example 1 ((S,R,R)—SiFA-FAP-1) was assessed in vitro using Grating-Coupled Interferometry (GCI) and waveRAPID kinetics assay (Kartal Ö et al. SLAS Discov. 2021 September; 26(8)-995-1003).
FAP was immobilized on a streptavidin sensor chap in order to assess target binding of compounds. Briefly, the streptavidin chip was conditioned with borate buffer and activated with EDC-NHS solution. Immobilization was achieved via amine coupling to the surface on an amine reactive sensor chip (NeutrAvidin sensor chip) and unused amine reactive groups were deactivated with ethanolamine. FAP was immobilized via via NeutrAvidin capturing of the biotinylated FAP and remaining NeutrAvidin quenched with biocytin. Binding of the compounds to immobilized FAP was assessed using the waveRAPID kinetics assay, using different concentrations of each compound in 1×PBS pH 7.4, 1 mM DTT, 0.005% Tween, 2% DMSO. Binding affinity to FAP was reported as KD.

[2] = system: subcutaneous U87-MG tumour; experiment: Biodistribution by γ-counting of excised tissues of U87-MG tumour-bearing mice; format: in vivo; settings: γ-counting 80 minutes post-radiotracer injection; for Biodistribution, Blood / Biodistribution, Bone / Biodistribution, Heart / Biodistribution, Intestine / Biodistribution, Kidneys / Biodistribution, Liver / Biodistribution, Lung / Biodistribution, Muscle / Biodistribution, Pancreas / Biodistribution, Spleen: U87-MG tumor-bearing mice
Experimental: (§1) The human glioblastoma U87-MG cell line was purchased from ATCC. Cells were cultured in EMEM (supplemented with 2 mM L-glutamine, with 10% fetal bovine serum and 0.1 mM NEAA) at 37° C. in a humidified atmosphere (5% CO2, 95% air).
(§2) All animal experiments were conducted in accordance with the Federation for Laboratory Animal Science Associations guidelines. Healthy female Swiss nude (CrI:NU(Ico)-Foxn1nu) mice (5-6 weeks old) were purchased from Charles River. Mice were irradiated 24-72 hours prior to tumour cell inoculation (whole-body irradiation, 2 Gy/mouse), and U87-MG cells (1×10^7 in 200 μL of RPMI 1640) were then injected subcutaneously into the right shoulder flank.
(§3) Female Swiss nude (CrI:NU(Ico)-Foxn1nu) mice each bearing a subcutaneous U87-MG tumour in the right flank (n=4) were administered with radiolabelled compound of Example 11 ([^18F]—Ga—(S,R,R)—SiFA-FAP-1) (8±1.5 MBq, 100 μL per mouse) intravenously into the tail vein (approximately 3 weeks post inoculation of U87-MG cells). Static PET imaging was performed 60 minutes post-radiotracer administration under anaesthesia (2% isoflurane) using a small animal PET scanner (eXploreVISTA, GE) (n=3). Whole-body PET acquisitions were performed over two bed positions for 20 minutes. Regions of interest were generated, and radiotracer uptake in tissues was calculated as % injected dose per region of interest volume (% ID/cm^3). Immediately post-PET imaging, mice (n=4) were sacrificed and select tissues (blood, tumor, heart, lung, liver, kidneys, spleen, pancreas, intestine, bone, muscle, tail) were harvested and weighed. Radioactivity in the collected samples was determined using γ-counting (Packard). Radiotracer uptake was calculated as % injected dose per gram of tissue (% ID/g).

[3] = system: subcutaneous U87-MG tumour; experiment: In vivo PET imaging uptake in U87-MG tumour-bearing mice; settings: 60 minutes post-radiotracer administration; for PET imaging uptake, Muscle: U87-MG tumor-bearing mice; for PET imaging uptake, Muscle / PET imaging uptake, Tumor: i.v.
Experimental: as §1, §2, §3

## CC(C)(C)[Si](F)(c1ccc(C(=O)NC[C@@H](NC(=O)CC[C@H](C(=O)O)N2CCN(CC(=O)O)CCN(CC(=O)O)CCN(CC(=O)O)CC2)C(=O)NCCCOc2ccc3nccc(C(=O)NCC(=O)N4CCC[C@H]4C#N)c3c2)cc1)C(C)(C)C [Example 1, 2,2′,2″-(10-((R)-1-Carboxy-4-(((R)-1-((3-((4-((2-((S)-2-cyanopyrrolidin-1-yl)-2-oxoethyl)carbamoyl)quinolin-6-yl)oxy)propyl)amino)-3-(4-(di-tert-butylfluorosilyl)benzamido)-1-oxopropan-2-yl)amino)-4-oxobutyl)-1,4,7,10-tetraazacyclododecane-1,4,7-triyl) triacetic acid]
[1]
  Kd: 0.031 nM

## CC(C)(C)[Si]([18F])(c1ccc(C(=O)NC[C@@H](NC(=O)CC[C@H](C(=O)O)N2CCN(CC(=O)O)CCN(CC(=O)O)CCN(CC(=O)O)CC2)C(=O)NCCCOc2ccc3nccc(C(=O)NCC(=O)N4CCC[C@H]4C#N)c3c2)cc1)C(C)(C)C [Example 11]
[2]; Mean ± SD (n=4)
  Biodistribution, Blood: 2.6 ± 1.1 % ID/g
  Biodistribution, Bone: 5.1 ± 1.3 % ID/g
  Biodistribution, Heart: 1.1 ± 0.2 % ID/g
  Biodistribution, Intestine: 7.3 ± 2.4 % ID/g
  Biodistribution, Kidneys: 3.0 ± 1.2 % ID/g
  Biodistribution, Liver: 3.3 ± 0.8 % ID/g
  Biodistribution, Lung: 1.7 ± 0.1 % ID/g
  Biodistribution, Muscle: 0.6 ± 0.1 % ID/g
  Biodistribution, Pancreas: 0.6 ± 0.1 % ID/g
  Biodistribution, Spleen: 0.7 ± 0.1 % ID/g
  Biodistribution - Tumor to muscle ratio (T:M): 8.3 ± 2.9
  Biodistribution, Tumor: 4.8 ± 1.1 % ID/g
[2]; Mouse 1
  Biodistribution, Blood: 2.0 % ID/g
  Biodistribution, Bone: 5.7 % ID/g
  Biodistribution, Heart: 1.1 % ID/g
  Biodistribution, Intestine: 5.4 % ID/g
  Biodistribution, Kidneys: 3.8 % ID/g
  Biodistribution, Liver: 3.8 % ID/g
  Biodistribution, Lung: 1.6 % ID/g
  Biodistribution, Muscle: 0.5 % ID/g
  Biodistribution, Pancreas: 0.7 % ID/g
  Biodistribution, Spleen: 0.7 % ID/g
  Biodistribution - Tumor to muscle ratio (T:M): 11.0
  Biodistribution, Tumor: 5.8 % ID/g
[2]; Mouse 2
  Biodistribution, Blood: 1.3 % ID/g
  Biodistribution, Bone: 6.6 % ID/g
  Biodistribution, Heart: 0.9 % ID/g
  Biodistribution, Intestine: 5.3 % ID/g
  Biodistribution, Kidneys: 1.6 % ID/g
  Biodistribution, Liver: 2.5 % ID/g
  Biodistribution, Lung: 1.8 % ID/g
  Biodistribution, Muscle: 0.8 % ID/g
  Biodistribution, Pancreas: 0.6 % ID/g
  Biodistribution, Spleen: 0.6 % ID/g
  Biodistribution - Tumor to muscle ratio (T:M): 5.9
  Biodistribution, Tumor: 4.8 % ID/g
[2]; Mouse 3
  Biodistribution, Blood: 3.5 % ID/g
  Biodistribution, Bone: 4.0 % ID/g
  Biodistribution, Heart: 1.3 % ID/g
  Biodistribution, Intestine: 8.6 % ID/g
  Biodistribution, Kidneys: 4.2 % ID/g
  Biodistribution, Liver: 2.7 % ID/g
  Biodistribution, Lung: 1.7 % ID/g
  Biodistribution, Muscle: 0.5 % ID/g
  Biodistribution, Pancreas: 0.6 % ID/g
  Biodistribution, Spleen: 0.7 % ID/g
  Biodistribution - Tumor to muscle ratio (T:M): 10.6
  Biodistribution, Tumor: 5.2 % ID/g
[2]; Mouse 4
  Biodistribution, Blood: 3.5 % ID/g
  Biodistribution, Bone: 4.2 % ID/g
  Biodistribution, Heart: 1.2 % ID/g
  Biodistribution, Intestine: 10.1 % ID/g
  Biodistribution, Kidneys: 2.4 % ID/g
  Biodistribution, Liver: 4.2 % ID/g
  Biodistribution, Lung: 1.8 % ID/g
  Biodistribution, Muscle: 0.6 % ID/g
  Biodistribution, Pancreas: 0.5 % ID/g
  Biodistribution, Spleen: 0.7 % ID/g
  Biodistribution - Tumor to muscle ratio (T:M): 5.7
  Biodistribution, Tumor: 3.2 % ID/g
[2]
  radiotracer uptake higher in tumor compared to muscle (biodistribution analyses): 8 fold
[3]; Mean ± SD (n=3)
  PET imaging Tumor:Muscle ratio: 4.4 ± 0.8
  PET imaging uptake, Muscle: 1.0 ± 0.1 % ID/cm^3
  PET imaging uptake, Tumor: 4.1 ± 0.3 % ID/cm^3
[3]; Mouse 1
  PET imaging Tumor:Muscle ratio: 4.6
  PET imaging uptake, Muscle: 1 % ID/cm^3
  PET imaging uptake, Tumor: 4.4 % ID/cm^3
[3]; Mouse 2
  PET imaging Tumor:Muscle ratio: 5
  PET imaging uptake, Muscle: 0.8 % ID/cm^3
  PET imaging uptake, Tumor: 4.2 % ID/cm^3
[3]; Mouse 3
  PET imaging Tumor:Muscle ratio: 3.5
  PET imaging uptake, Muscle: 1.1 % ID/cm^3
  PET imaging uptake, Tumor: 3.8 % ID/cm^3
